Measured values reported in paper PMC4138103 (PLoS ONE, 2014).
Read-outs that look alike come from different tables or passages of the source.

Tested on: Sprague-Dawley rats
Experiment: Retinoid analyses in liver, serum and kidney
Type: in vivo, Rattus norvegicus
Design: key to Kidney Retinyl esters, Dose response / Liver All-trans RA, Dose response / Kidney All-trans RA, Dose response / Serum Retinol, Dose response: D: significant dose response (for results, see Table 2); T: significant trend
Settings: for Emax: Rattus norvegicus; for Kidney All-trans RA / Kidney Retinol / Kidney Retinyl esters / Liver 9-cis-4o-13,14-dh RA / Liver All-trans RA / Liver Retinol / Liver Retinyl esters: group mean, N=5
Protocol: Retinoids in liver, serum, and kidney were analyzed according to Schmidt et al.. The polar retinoids 9-cis-retinoic acid (9-cis-RA), 13-cis-retinoic acid (13-cis-RA), 13-cis-4-oxo-retinoic acid (13-cis-4-o-RA), 9-cis-4-oxo-13,14-dihydro-retinoic acid (9-cis-4-o-13,14-dh-RA), all-trans retinoic acid (all-trans RA) and the apolar retinoids retinol and retinyl palmitate were extracted by a single liquid-extraction, separated from each other via solid-phase extraction using an aminopropyl phase, and then injected onto two different HPLC systems that were coupled with UV detection. […] The limits of detection (LOD) for all-trans RA and 9c-4o-13,14-dh-RA were 0.7 and 1.0 pmol/g tissue, and 0.3 and 0.6 pmol/ml serum, respectively. Retinol and retinyl palmitate were separated on a J'sphere ODS-H80 (4.6×150 mm, 4 µm particle size) obtained from YMC (Schermbeck, Germany), and were detected at 325 nm. The LOD for retinol and retinyl palmitate were 5.6 and 5.5 pmol/g tissue, and 4.2 and 4.2 pmol/ml serum, respectively.
Data were also analyzed using the BMD method, which is based on dose-response modeling of the full data set using a nested family of exponential and Hill models. The analyses were done on data of males and females combined, using sex as a covariate. […] In that case, different Critical Effect Doses (CEDs) and CEDs at the lowest bound of the confidence interval (CED-L) were generated for each sex. If no difference between sexes is detected, a CED and CED-Ls for the combined data is generated. However, this was also done if the curve fits are close, and separate analyses for males and females were then performed manually. CEDs and CED-Ls were calculated at the predefined Critical Effect Size (CES) of 5% (EFSA standard) or 10%.

[1] = females, total dose 0-1700 mg/kg bw
[2] = females, total dose 10 mg/kg bw
[3] = females, total dose 30 mg/kg bw
[4] = females, total dose 100 mg/kg bw
[5] = females, total dose 300 mg/kg bw
[6] = females, total dose 1000 mg/kg bw
[7] = females, total dose 1700 mg/kg bw

Clc1cc(Cl)c(-c2cc(Cl)c(Cl)c(Cl)c2Cl)cc1Cl [PCB 180, 2,2′,3′,4,4′,5,5′-heptachlorobiphenyl]
Emax (F, model E4, controls vs high dose according to the fitted model, read-out: Maximum response, Liver 9c-4o-13,14-dh-RA amount): -70.3%
Emax (F, model E4, controls vs high dose according to the fitted model, read-out: Maximum response, Liver 9c-4o-13,14-dh-RA concentration): -78.2%
Emax (females, controls vs high dose, fitted model, read-out: Kidney all-trans RA amount, Maximum response): 16.5%
Emax (females, controls vs high dose, fitted model, read-out: Kidney all-trans RA concentration, Maximum response): 19.9%
Emax (females, controls vs high dose, fitted model, read-out: Kidney retinol amount, Maximum response): 26.9%
Emax (females, controls vs high dose, fitted model, read-out: Kidney retinol concentration, Maximum response): 27.8%
Emax (females, controls vs high dose, fitted model, read-out: Liver 9c-4o-13,14-dh-RA amount, Maximum response): -70.3%
Emax (females, controls vs high dose, fitted model, read-out: Liver 9c-4o-13,14-dh-RA conc., Maximum response): -78.2%
Emax (females, controls vs high dose, fitted model, read-out: Liver retinol concentration, Maximum response): -42.9%
Emax (females, controls vs high dose, fitted model, read-out: Liver retinyl esters amount, Maximum response): -29%
Emax (females, controls vs high dose, fitted model, read-out: Liver retinyl esters concentration, Maximum response): -50.9%
Emax (females, controls vs high dose, fitted model, read-out: Serum retinol concentration, Maximum response): 23%
Emax (males, controls vs high dose, fitted model, read-out: Kidney retinol amount, Maximum response): 50.4%
Emax (males, controls vs high dose, fitted model, read-out: Kidney retinol concentration, Maximum response): 52%
Emax (males, controls vs high dose, fitted model, read-out: Kidney retinyl esters amount, Maximum response): 260%
Emax (males, controls vs high dose, fitted model, read-out: Kidney retinyl esters concentration, Maximum response): 254%
Emax (males, controls vs high dose, fitted model, read-out: Liver all-trans RA amount, Maximum response): 93%
Emax (males, controls vs high dose, fitted model, read-out: Liver all-trans RA concentration, Maximum response): 21%
Emax (males, controls vs high dose, fitted model, read-out: Liver retinol amount, Maximum response): -18.1%
Emax (males, controls vs high dose, fitted model, read-out: Liver retinol concentration, Maximum response): -46.8%
Emax (males, controls vs high dose, fitted model, read-out: Liver retinyl esters amount, Maximum response): -45.2%
Emax (males, controls vs high dose, fitted model, read-out: Liver retinyl esters concentration, Maximum response): -62.8%
Emax (model E2, controls vs high dose according to the fitted model, read-out: Maximum response, Kidney retinol amount): 49%
Emax (model E2, controls vs high dose according to the fitted model, read-out: Maximum response, Kidney retinol concentration): 51.9%
Emax (model E2, controls vs high dose according to the fitted model, read-out: Maximum response, Liver all-trans RA amount): 92.7%
Emax (model E2, controls vs high dose according to the fitted model, read-out: Maximum response, Liver all-trans RA concentration): 20.7%
Emax (model E2, controls vs high dose according to the fitted model, read-out: Maximum response, Liver retinol amount): -18.5%
Emax (model E2, controls vs high dose according to the fitted model, read-out: Maximum response, Liver retinyl esters amount): -45.7%
Emax (model E4, controls vs high dose according to the fitted model, read-out: Maximum response, Kidney retinyl esters amount): 253%
Emax (model E4, controls vs high dose according to the fitted model, read-out: Maximum response, Kidney retinyl esters concentration): 256%
Emax (model E4, controls vs high dose according to the fitted model, read-out: Maximum response, Liver retinol concentration): -44.6%
Emax (model E4, controls vs high dose according to the fitted model, read-out: Maximum response, Liver retinyl esters concentration): -63.4%
Liver 9c-4o-13,14-dh-RA concentration, max. decrease (females): 78%
Liver retinol concentration, max. decrease (females): 43%
Dose response, Kidney All-trans RA [1]: D, T
Dose response, Kidney Retinol [1]: D, T
Dose response, Liver 9-cis-4o-13,14-dh RA [1]: D, T
Dose response, Liver Retinyl esters [1]: D, T
Kidney All-trans RA, Dose response [1]: D
Kidney Retinol, Dose response [1]: D, T
Liver 9-cis-4o-13,14-dh-RA, Dose response [1]: D, T
Liver Retinol, Dose response [1]: D, T
Liver Retinyl esters, Dose response [1]: D, T
Serum Retinol, Dose response [1]: D
Kidney All-trans RA (females, total dose 3 mg/kg bw): 19.8 pmol
Kidney Retinol (females, total dose 3 mg/kg bw): 8.72 nmol
Kidney Retinyl esters (females, total dose 3 mg/kg bw): 0.77 nmol
Liver 9-cis-4o-13,14-dh RA (females, total dose 3 mg/kg bw): 887 pmol
Liver All-trans RA (females, total dose 3 mg/kg bw): 267 pmol
Liver Retinol (females, total dose 3 mg/kg bw): 0.26 µmol
Liver Retinyl esters (females, total dose 3 mg/kg bw): 11.1 µmol
Kidney All-trans RA [2]: 18.2 pmol
Kidney Retinol [2]: 8.07 nmol
Kidney Retinyl esters [2]: 0.88 nmol
Liver 9-cis-4o-13,14-dh RA [2]: 665 pmol
Liver All-trans RA [2]: 239 pmol
Liver Retinol [2]: 0.23 µmol
Liver Retinyl esters [2]: 9.31 µmol
Kidney All-trans RA [3]: 19.9 pmol
Kidney Retinol [3]: 9.25 nmol
Kidney Retinyl esters [3]: 0.82 nmol
Liver 9-cis-4o-13,14-dh RA [3]: 691 pmol
Liver All-trans RA [3]: 231 pmol
Liver Retinol [3]: 0.25 µmol
Liver Retinyl esters [3]: 8.81 µmol
Kidney All-trans RA [4]: 20.6 pmol
Kidney Retinol [4]: 8.42 nmol
Kidney Retinyl esters [4]: 0.71 nmol
Liver 9-cis-4o-13,14-dh RA [4]: 543 pmol
Liver All-trans RA [4]: 252 pmol
Liver Retinol [4]: 0.24 µmol
Liver Retinyl esters [4]: 9.73 µmol
Kidney All-trans RA [5]: 20.2 pmol
Kidney Retinol [5]: 8.45 nmol
Kidney Retinyl esters [5]: 0.73 nmol
Liver 9-cis-4o-13,14-dh RA [5]: 357 pmol
Liver All-trans RA [5]: 332 pmol
Liver Retinol [5]: 0.24 µmol
Liver Retinyl esters [5]: 8.90 µmol
Kidney All-trans RA [6]: 21.5 pmol
Kidney Retinol [6]: 8.95 nmol
Kidney Retinyl esters [6]: 0.74 nmol
Liver 9-cis-4o-13,14-dh RA [6]: 226 pmol
Liver All-trans RA [6]: 296 pmol
Liver Retinol [6]: 0.24 µmol
Liver Retinyl esters [6]: 8.28 µmol
Kidney All-trans RA [7]: 22.0 pmol
Kidney Retinol [7]: 10.3 nmol
Kidney Retinyl esters [7]: 0.75 nmol
Liver 9-cis-4o-13,14-dh RA [7]: 261 pmol
Liver All-trans RA [7]: 289 pmol
Liver Retinol [7]: 0.21 µmol
Liver Retinyl esters [7]: 6.90 µmol
Kidney all-trans RA amount, CED (females, CES 5%, total dose based): 494 mg/kg bw
